The data set concerns healthy-1 or PD-2 fibroblasts. Kind of data set: Peroxisome movement or distribution, EGFP-peroxisome live imaging. Type of data set: cell-based, human. Particulars: 10 μM for 30 hrs. The protocol: FIG. 8. Related to FIG. 2-4. Miro1 Reducer in Human Cell and Fly Models. (A) Fibroblasts from Healthy-1 and PD-2 were treated, lysed, and blotted as indicated. Band intensities are normalized to those of GAPDH from the same blots and compared to “Healthy-1, no treatment”. n=4 independent experiments. (B) Fibroblasts from PD-2 were treated and immunostained as indicated. The intensity was quantified for each cell across 264-320 cells from 3 independent experiments, compared to “no treatment”. (C) Fibroblasts were treated, immunoprecipitated (IPed) with anti-Miro1, and blotted as indicated. Similar results were observed twice. (D) Similar as in (C), fibroblasts were treated as indicated, and IPed with anti-Miro1. The GTPase activity of the IPed Miro1 protein was measured as described in Method. […] The MitoSox intensity was quantified for each cell across 106-161 cells from 3 coverslips. […] The TMRM intensity was measured for each cell across 48-60 cells from 3 independent experiments, and expressed as a fraction of the mean of “Healthy-1, no treatment”. […] The movement (the intensity of non-yellow) was quantified for each cell as described in (Tsai et al., 2014) across 22-31 cells from 3 transfections. […] (1) Left: The percentage of TH-positive iPSC-derived neurons out of total cells (Dapi-positive) is calculated after immunocytochemistry under 20× as described in FIG. 3. […]

For the compound `O=C(Nc1ccc(Nc2cc(-n3ccnc3)ncn2)cc1)Nc1cccc(F)c1` [Miro1 Reducer], the “peroxisome movement or distribution” value was “did not affect”.

(Values after US12544375B2, “Small molecule therapeutic for parkinson's disease paired with a biomarker of therapeutic activity” (The Board of Trustees of the Leland Stanford Junior …, priority 2019, dated 2026).)
